# Assay results reported in patent publication US20160137714A1 (Thrasos Innovation, Inc., priority 2014, published 2016).
# Positions of bridges follow the written chain, without caps; N, C: chain ends. Non-standard residues stand in square brackets, D forms with d. Residues, ends and D or L forms follow the SMILES beside them.
# Experiments:
# [1] = In vitro plasma stability in heparin-treated fresh rat plasma at 37° C.; format: in vitro ADME; settings: for AUC0-240: time 0 to 240 minutes; for remaining at 1 min, 1 μM / remaining at 5 min, 1 μM / remaining at 0.25 h, 1 μM / remaining at 0.5 h, 1 μM / remaining at 1 h, 1 μM / remaining at 2 h, 1 μM: heparin-treated fresh rat plasma
# Method: GPR-397 and GPR-405 were independently added to fresh rat plasma at a final in-vial concentration of 1 μM. The peptides were incubated in a water bath at 37° C. over a time course that included the following points (in minutes): 0, 1, 5, 15, 30, 60, 120, 240, and 1440. After the incubation time was completed, a 50 μL aliquot of plasma was removed and proteins were precipitated using a solution containing internal standard (THR-123 at 150 ng/mL) in methanol with 0.5% acetic acid (v/v). The samples were centrifuged at 13,000 RPM for 5 minutes, and a 100 μL aliquot of supernatant was removed and transferred to a 96-well plate containing 100 μL of reconstitution solution (Water/MeOH/Acetic Acid/TFA, 60/40/0.2/0.05, v/v/v/v). A calibration curve and quality control (QC) samples were prepared in parallel in the same manner as the incubation samples. The calibration range for this assay was from 0.02 to 2.0 μM in rat plasma. The extracted calibrants, QC, and incubation samples were injected onto an AB SCIEX API 2000 LC-MS/MS system. Chromatographic separation was performed using a reversed-phase C18 HPLC column (Ace-3 C18, 30×2.1 mm, 3 μm). The solvent system consisted of Milli-Q water, acetonitrile and formic acid. Analyte and internal standard were detected using the multiple reaction monitoring (MRM) scan mode. Calibration curves were generated by using a weighted (1/concentration) quadratic regression analysis of the peak area ratios (analyte/internal standard) versus the nominal concentration of the calibration standards. The concentration of the analyte in the incubation samples was determined by back-calculating the peak area ratios obtained using the quadratic regression.
# FIGS. 9-12 compare the in vitro plasma stability results for GPR-405 and THR-123 incubated in fresh rat plasma treated with heparin. FIG. 9 provides a scatter plot showing the first 240 minutes of the time-course and disappearance of the THR peptides in heparin-treated fresh rat plasma at 37° C. […] FIG. 12 compares the calculated half-life of THR-123 and GPR-405.
# [2] = THR-123 i.v. in rodents: half-life and metabolites in plasma and kidney tissue; format: in vivo, rat
# From the text: The main metabolite VII results from a proteolytic cleavage between positions 14 and 15 (VII in FIG. 2). The structure of each metabolite was confirmed by synthesis and analytical characterization.
# Ex-vivo plasma stability = format: in vitro ADME, mouse or rat; settings: fresh plasma 37° C., 1 μM
# Method: Test article is added to fresh mouse or rat plasma at a final in-vial concentration of 1 μM. The peptide is incubated in a water bath at 37° C. over a time course that included the following points (in minutes): 0, 15, 30, 60, 120, 240, and 1440. After the incubation time is completed, a 50 μL aliquot of plasma is removed and proteins are precipitated using a solution containing internal standard (THR-123 at 150 ng/mL) in methanol with 0.5% acetic acid (v/v). The samples are centrifuged at 13,000 RPM for 5 minutes, and a 100 μL aliquot of supernatant is removed and transferred to a 96-well plate containing 200 μL of reconstitution solution (Water/MeOH/Acetic Acid/TFA, 60/40/0.2/0.05, v/v/v/v). A calibration curve and quality control (QC) samples are prepared in parallel in the same manner as the incubation samples. The calibration range for this assay is from 0.02 to 2.0 μM in rat or mouse plasma. The extracted calibrants, QC, and incubation samples are injected onto an AB SCIEX API 2000 LC-MS/MS system. Chromatographic separation is performed using a reversed-phase C18 HPLC column (Ace-3 C18, 30×2.1 mm, 3 μm). The solvent system consists of Milli-Q water, acetonitrile and formic acid. Analyte and internal standard are detected using the multiple reaction monitoring (MRM) scan mode. Calibration curves are generated by using a weighted (1/concentration) quadratic regression analysis of the peak area ratios (analyte/internal standard) versus the nominal concentration of the calibration standards. The concentration of the analyte in the incubation samples is determined by back-calculating the peak area ratios obtained using the quadratic regression.
# [3] = fresh rat plasma 37° C., 1 μM peptide, 0 min
# [4] = fresh rat plasma 37° C., 1 μM peptide, 1 min
# [5] = fresh rat plasma 37° C., 1 μM peptide, 5 min
# [6] = fresh rat plasma 37° C., 1 μM peptide, 15 min
# [7] = fresh rat plasma 37° C., 1 μM peptide, 30 min
# [8] = fresh rat plasma 37° C., 1 μM peptide, 60 min
# [9] = fresh rat plasma 37° C., 1 μM peptide, 120 min
# [10] = fresh rat plasma 37° C., 1 μM peptide, 240 min
# [11] = fresh rat plasma 37° C., 1 μM peptide, 240 min (4 hours), read-out: TI remaining
# [12] = fresh rat plasma 37° C., 1 μM peptide, 1440 min
# [13] = fresh rat plasma 37° C., 1 μM peptide
# [14] = fresh rat plasma treated with heparin in vitro at 37° C.
# [15] = fresh rat plasma 37° C., 1 μM peptide, 1 min, read-out: TI remaining
# [16] = fresh rat plasma 37° C., 1 μM peptide, 5 min, read-out: TI remaining
# [17] = fresh rat plasma 37° C., 1 μM peptide, 15 min, read-out: TI remaining
# [18] = fresh rat plasma 37° C., 1 μM peptide, 30 min, read-out: TI remaining
# [19] = fresh rat plasma 37° C., 1 μM peptide, 60 min, read-out: TI remaining
# [20] = fresh rat plasma 37° C., 1 μM peptide, 120 min, read-out: TI remaining
structure (smiles),measurement,setting,value
"CC(C)C[C@@H]1NC(=O)[C@H](C(C)C)NC(=O)[C@H](CCC(N)=O)NC(=O)[C@H](CO)NC(=O)[C@H](CO)NC(=O)[C@H](CC(N)=O)NC(=O)[C@H](Cc2ccccc2)NC(=O)[C@H](Cc2ccc(O)cc2)NC(=O)[C@H](Cc2ccc(O)cc2)NC(=O)[C@@H](N)CSSC[C@@H](C(=O)N[C@@H](CCCCN)C(=O)N[C@@H](CCCNC(=N)N)C(=O)N[C@H](Cc2ccc(O)cc2)C(=O)N[C@@H](CCCNC(=N)N)C(=O)N[C@@H](CO)C(=O)O)NC1=O [GPR-405, Cys-Tyr-Tyr-Phe-Asn-Ser-Ser-Gln-Val-Leu-Cys-Lys-Arg-(D)Tyr-Arg-Ser] (H-CYYFNSSQVLCKR[dY]RS-OH; disulfide 1-11)",Mean plasma concentration,[1]; [3],1.095 µM
same,Sample 1 plasma concentration,[1]; [3],1.100 µM
same,Sample 2 plasma concentration,[1]; [3],1.090 µM
same,TI remaining,[1]; [3],100%
same,Mean plasma concentration,[1]; [4],1.065 µM
same,Sample 1 plasma concentration,[1]; [4],1.080 µM
same,Sample 2 plasma concentration,[1]; [4],1.050 µM
same,Mean plasma concentration,[1]; [5],1.105 µM
same,Sample 1 plasma concentration,[1]; [5],1.090 µM
same,Sample 2 plasma concentration,[1]; [5],1.120 µM
same,Mean plasma concentration,[1]; [6],1.065 µM
same,Sample 1 plasma concentration,[1]; [6],1.080 µM
same,Sample 2 plasma concentration,[1]; [6],1.050 µM
same,TI remaining,[1]; [6],97.3%
same,Mean plasma concentration,[1]; [7],1.002 µM
same,Sample 1 plasma concentration,[1]; [7],0.963 µM
same,Sample 2 plasma concentration,[1]; [7],1.040 µM
same,Mean plasma concentration,[1]; [8],0.934 µM
same,Sample 1 plasma concentration,[1]; [8],0.895 µM
same,Sample 2 plasma concentration,[1]; [8],0.973 µM
same,Mean plasma concentration,[1]; [9],0.826 µM
same,Sample 1 plasma concentration,[1]; [9],0.836 µM
same,Sample 2 plasma concentration,[1]; [9],0.815 µM
same,Mean plasma concentration,[1]; [10],0.538 µM
same,Sample 1 plasma concentration,[1]; [10],0.534 µM
same,Sample 2 plasma concentration,[1]; [10],0.541 µM
same,TI remaining,"[1]; fresh rat plasma 37° C., 1 μM peptide, 240 min (4 hours)",49.1%
same,remaining at 4 h,[1]; [11],49.1%
same,Mean plasma concentration,[1]; [12],0.075 µM
same,Sample 1 plasma concentration,[1]; [12],0.081 µM
same,Sample 2 plasma concentration,[1]; [12],0.068 µM
same,TI remaining,"[1]; fresh rat plasma 37° C., 1 μM peptide, 1440 min (24 hours)",6.8%
same,remaining at 24 h,"[1]; fresh rat plasma 37° C., 1 μM peptide, 1440 min (24 hours), read-out: TI remaining",6.8%
same,AUC0-240,[1]; [13],195.4 μM* min/ml
same,measured half-life relative to that of THR-123,[1]; [14],about 100 times
same,stability compared with THR-123,[1]; [14],dramatically more stable than THR-123
same,"remaining at 1 min, 1 μM",[1]; [15],97.3%
same,"remaining at 5 min, 1 μM",[1]; [16],101%
same,"remaining at 0.25 h, 1 μM",[1]; [17],97.3%
same,"remaining at 0.5 h, 1 μM",[1]; [18],91.5%
same,"remaining at 1 h, 1 μM",[1]; [19],85.3%
same,"remaining at 2 h, 1 μM",[1]; [20],75.4%
"CC(C)C[C@@H]1NC(=O)[C@H](C(C)C)NC(=O)[C@H](CC(N)=O)NC(=O)[C@H](CO)NC(=O)[C@H](CO)NC(=O)[C@H](CC(=O)O)NC(=O)[C@H](CC(=O)O)NC(=O)[C@H](Cc2ccccc2)NC(=O)[C@H](Cc2ccc(O)cc2)NC(=O)[C@@H](N)CSSC[C@@H](C(=O)N[C@@H](CCCCN)C(=O)N[C@@H](CCCCN)C(=O)N[C@@H](Cc2ccc(O)cc2)C(=O)N[C@@H](CCCNC(=N)N)C(=O)N[C@@H](CO)C(=O)O)NC1=O [THR-123, Cys-Tyr-Phe-Asp-Asp-Ser-Ser-Asn-Val-Leu-Cys-Lys-Lys-Tyr-Arg-Ser] (H-CYFDDSSNVLCKKYRS-OH; disulfide 1-11)",half-life in plasma and kidney tissue,"[2]; administered intravenously to rodents, FIG. 1",short half-life
same,metabolites identified in the kidney,"[2]; rat kidney tissue, ten minutes post i.v. administration, FIG. 2","metabolites VI, VII, VIII and IX"
same,Mean plasma concentration,[1]; [3],0.905 µM
same,Sample 1 plasma concentration,[1]; [3],0.970 µM
same,Sample 2 plasma concentration,[1]; [3],0.840 µM
same,TI remaining,[1]; [3],100%
same,Mean plasma concentration,[1]; [4],0.855 µM
same,Sample 1 plasma concentration,[1]; [4],0.850 µM
same,Sample 2 plasma concentration,[1]; [4],0.860 µM
same,Mean plasma concentration,[1]; [5],0.295 µM
same,Sample 1 plasma concentration,[1]; [5],0.300 µM
same,Sample 2 plasma concentration,[1]; [5],0.290 µM
same,Mean plasma concentration,[1]; [6],0.055 µM
same,Sample 1 plasma concentration,[1]; [6],0.060 µM
same,Sample 2 plasma concentration,[1]; [6],0.050 µM
same,Mean plasma concentration,[1]; [7],0.030 µM
same,Sample 1 plasma concentration,[1]; [7],0.060 µM
same,Sample 2 plasma concentration,[1]; [7],0.030 µM
same,Mean plasma concentration,[1]; [8],0.025 µM
same,Sample 1 plasma concentration,[1]; [8],0.026 µM
same,Sample 2 plasma concentration,[1]; [8],0.024 µM
same,Mean plasma concentration,[1]; [9],0.018 µM
same,Sample 1 plasma concentration,[1]; [9],0.015 µM
same,Sample 2 plasma concentration,[1]; [9],0.020 µM
same,Mean plasma concentration,[1]; [10],0.011 µM
same,Sample 1 plasma concentration,[1]; [10],0.010 µM
same,Sample 2 plasma concentration,[1]; [10],0.011 µM
same,remaining at 4 h,[1]; [11],1.2%
same,AUC0-240,[1]; [13],15.65 μM* min/ml
same,"remaining at 1 min, 1 μM",[1]; [15],94.4%
same,"remaining at 5 min, 1 μM",[1]; [16],32.4%
same,"remaining at 0.25 h, 1 μM",[1]; [17],6.4%
same,"remaining at 0.5 h, 1 μM",[1]; [18],3.3%
same,"remaining at 1 h, 1 μM",[1]; [19],2.8%
same,"remaining at 2 h, 1 μM",[1]; [20],1.9%
same,remaining at 1 h,"Ex-vivo plasma stability; 60 min, read-out: Percent remaining 60 min",3.4%
same,remaining at 2 h,"Ex-vivo plasma stability; 120 min, read-out: Percent remaining 120 min",2.3%
